Data reported in patent publication US20210338672A1, “USE OF AN INHIBITOR OF AN ENT FAMILY TRANSPORTER IN THE TREATMENT OF CANCER AND COMBINATION THEREOF WITH AN ADENOSINE RECEPTOR ANTAGONIST” (iTeos Belgium SA, priority 2018, published 2021).
Where a name gives a salt, the structure may show the parent alone.

Columns and labels:
[1] = system: Human primary CD3+ T cells; experiment: Proliferation of CD4+ and CD8+ T cells (CFSE dilution, flow cytometry); details: 3 days; for T cell proliferation, effect of adenosine or ATP: anti-CD3/CD28-stimulated CD3+ T cells; for T cell proliferation, effect of adenosine or ATP / Restoration of adenosine- and ATP-mediated suppression of T cell proliferation: 25 μM adenosine or 200 μM ATP; for Restoration of adenosine- and ATP-mediated suppression of T cell proliferation: single agent, Compound 8a at 300 nM
Description: Human primary CD3+ T cells were stimulated with antiCD3/antiCD28-coated microbeads, and treated with 25 μM adenosine (FIGS. 3A and 3C) or 200 μM ATP (FIGS. 3B and 3D). Proliferation of CD4+(FIGS. 3A and 3B) and CD8+(FIGS. 3C and 3D) T cells was analysed by flow cytometry after a 3 days incubation period.
(§1) Human primary CD3+ T cells were stimulated with antiCD3/antiCD28-coated microbeads, and treated with 100 μM ATP or control medium. Viability of CD3+ T cells (FIG. 5A) and proliferation of CD8+ T cells (FIG. 5B) were analysed by flow cytometry after a 3 days incubation period.
(§2) PBMC and CD3+ T cell isolation. Venous blood from healthy volunteers, all of whom signed an informed consent approved by the Ethics Committee (FOR-UIC-BV-050-01-01 ICF_HBS_HD Version 5.0), was obtained via Unité d'Investigation Clinique (Centre Hospitalier Universitaire de Tivoli, La Louviere, Belgium). Mononuclear cells were collected by density gradient centrifugation, using SepMate-50 tubes and Lymphoprep according to the manufacturer's instructions. CD3+ T cells were isolated by immunomagnetic negative selection, using the EasySep Human T Cell Isolation Kit as per manufacturer's instructions. CD3+ T cells were stored in heat inactivated FBS and 10% DMSO in liquid nitrogen.
Human primary T cell culture. Human purified CD3+ T cells were thawed and washed twice with RPMI1640 medium, UltraGlutamine, supplemented with 1× non-essential amino acids (Lonza), and 1 mM Sodium Pyruvate (Gibco) (complete media), containing 10% hiFBS. After the final wash, cells were resuspended in PBS containing 10% FBS, and labeled using 3 μM CFSE during 5 min at room temperature, followed by two wash steps in complete media. After the last wash, cells were suspended at 1.6×10^6 cells/mL in X-Vivol5 medium. 50 μL of cell suspension (8×10^4 T cells) was added to wells of sterile round-bottom 96-well plates. Cells were activated by adding 50 μL of anti-CD3 anti-CD28 coated microbeads (Dynabeads human T-activator CD3/CD28), suspended in X-Vivo15 medium, at a ratio of one microbead per two cells. […] The final concentration of DMSO in the assay was 0.05%, and the final assay volume was 200 μL. Experiments were performed in biological duplicate, and DMSO control was added in quadruplicate. The cells were placed in a 37° C. humidified tissue culture incubator with 5% CO2 for 72 hours. […] Cell pellets were resuspended in FACS buffer (see below) for flow cytometry analysis.
(§3) Flow cytometry. Cells were washed with FACS buffer (PBS containing 2 mM EDTA and 0.1% BSA) and stained with surface marker antibodies and viability dye for 20 min on ice. Cells were washed twice with FACS buffer and data acquired using an LSRFortessa (BD biosciences). Analysis was performed using FlowJo software (Treestar).

[2] = system: Human primary CD3+ T cells; experiment: Viability of stimulated human primary CD3+ T cells (flow cytometry, fixable viability dye); details: 3 days; for T cell viability, effect of adenosine or ATP: anti-CD3/CD28-stimulated CD3+ T cells; for T cell viability, effect of adenosine or ATP / Restoration of adenosine- and ATP-mediated suppression of T cell viability: 25 μM adenosine or 200 μM ATP; for Restoration of adenosine- and ATP-mediated suppression of T cell viability: single agent, Compound 8a at 300 nM
Description: Human primary CD3+ T cells were stimulated with antiCD3/antiCD28-coated microbeads, and treated with 25 μM adenosine (FIG. 2A) or 200 μM ATP (FIG. 2B). T cell viability was analysed by flow cytometry after a 3 days incubation period.
as §1
PBMC and CD3+ T cell isolation. […] Mononuclear cells were collected by density gradient centrifugation, using SepMate-50 tubes and Lymphoprep according to the manufacturer's instructions. CD3+ T cells were isolated by immunomagnetic negative selection, using the EasySep Human T Cell Isolation Kit as per manufacturer's instructions. CD3+ T cells were stored in heat inactivated FBS and 10% DMSO in liquid nitrogen.
(§4) Human primary T cell culture. Human purified CD3+ T cells were thawed and washed twice with RPMI1640 medium, UltraGlutamine, supplemented with 1× non-essential amino acids (Lonza), and 1 mM Sodium Pyruvate (Gibco) (complete media), containing 10% hiFBS. After the final wash, cells were resuspended in PBS containing 10% FBS, and labeled using 3 μM CFSE during 5 min at room temperature, followed by two wash steps in complete media. After the last wash, cells were suspended at 1.6×10^6 cells/mL in X-Vivol5 medium. 50 μL of cell suspension (8×10^4 T cells) was added to wells of sterile round-bottom 96-well plates. Cells were activated by adding 50 μL of anti-CD3 anti-CD28 coated microbeads (Dynabeads human T-activator CD3/CD28), suspended in X-Vivo15 medium, at a ratio of one microbead per two cells. […] The final concentration of DMSO in the assay was 0.05%, and the final assay volume was 200 μL. Experiments were performed in biological duplicate, and DMSO control was added in quadruplicate. The cells were placed in a 37° C. humidified tissue culture incubator with 5% CO2 for 72 hours. After 72 hours, the cells were pelleted by centrifugation at 1600 rpm for 5 minutes, and supernatants were transferred to V-bottom 96-well plates for cytokine quantification. Cell pellets were resuspended in FACS buffer (see below) for flow cytometry analysis.
as §3

[3] = system: Human primary CD3+ T cells; details: 25 μM adenosine or 200 μM ATP, 3 days; for T cell cytokine secretion (IL-2), effect of adenosine or ATP: anti-CD3/CD28-stimulated CD3+ T cells; for Restoration of adenosine- and ATP-mediated suppression of IL-2 secretion: single agent, Compound 8a at 300 nM
Description: CD3+ T cells were stimulated with antiCD3/antiCD28-coated microbeads, and treated with 25 μM adenosine (FIG. 4A) or 200 μM ATP (FIG. 4B). IL-2 secretion in the supernatant was analysed by AlphaLISA after a 3 days incubation period. […] Representative data for 1 healthy donor are shown.
as §2, §4
Cytokine quantification. Supernatants were centrifuged at 4000 rpm for 10 minutes, and IL-2 was quantified using the IL-2 (human) AlphaLISA Biotin-Free Detection Kit, and TNFα was quantified using the AlphaLISA Human TNFα Biotin-Free Detection Kit, according to the manufacturer's instructions.

[4] = system: Human primary CD3+ T cells; experiment: TNFα secretion by CD3+ T cells (AlphaLISA); details: 100 μM ATP; for Reversal of inhibition of T cells in the presence of ATP, A2A receptor antagonist in combination with dipyridamole: FIG. 5A-C (viability, CD8+ proliferation, TNFα), with dipyridamole 1 μM, Compound 8a 300 nM, NIR178 5 μM, CPI-444 5 μM, AZD4635 1 μM, AB928 1 μM
Description: Human primary CD3+ T cells were stimulated with antiCD3/antiCD28-coated microbeads, and treated with 100 μM ATP or control medium. Viability of CD3+ T cells (FIG. 5A) and proliferation of CD8+ T cells (FIG. 5B) were analysed by flow cytometry after a 3 days incubation period. TNFα secretion in the supernatant was analysed by AlphaLISA. Grey shaded bars show A2AR antagonist treated wells, whilst clear bars denote concentration-matched DMSO treated wells. […] Data shown are representative of data obtained in three healthy individuals in 4 independent experiments.
Venous blood from healthy volunteers, all of whom signed an informed consent approved by the Ethics Committee (FOR-UIC-BV-050-01-01 ICF_HBS_HD Version 5.0), was obtained via Unité d'Investigation Clinique (Centre Hospitalier Universitaire de Tivoli, La Louviere, Belgium). Mononuclear cells were collected by density gradient centrifugation, using SepMate-50 tubes and Lymphoprep according to the manufacturer's instructions. CD3+ T cells were isolated by immunomagnetic negative selection, using the EasySep Human T Cell Isolation Kit as per manufacturer's instructions. CD3+ T cells were stored in heat inactivated FBS and 10% DMSO in liquid nitrogen.
Human purified CD3+ T cells were thawed and washed twice with RPMI1640 medium, UltraGlutamine, supplemented with 1× non-essential amino acids (Lonza), and 1 mM Sodium Pyruvate (Gibco) (complete media), containing 10% hiFBS. After the final wash, cells were resuspended in PBS containing 10% FBS, and labeled using 3 μM CFSE during 5 min at room temperature, followed by two wash steps in complete media. After the last wash, cells were suspended at 1.6×10^6 cells/mL in X-Vivol5 medium. 50 μL of cell suspension (8×10^4 T cells) was added to wells of sterile round-bottom 96-well plates. Cells were activated by adding 50 μL of anti-CD3 anti-CD28 coated microbeads (Dynabeads human T-activator CD3/CD28), suspended in X-Vivo15 medium, at a ratio of one microbead per two cells. […] The final concentration of DMSO in the assay was 0.05%, and the final assay volume was 200 μL. Experiments were performed in biological duplicate, and DMSO control was added in quadruplicate. The cells were placed in a 37° C. humidified tissue culture incubator with 5% CO2 for 72 hours. After 72 hours, the cells were pelleted by centrifugation at 1600 rpm for 5 minutes, and supernatants were transferred to V-bottom 96-well plates for cytokine quantification. Cell pellets were resuspended in FACS buffer (see below) for flow cytometry analysis.
Supernatants were centrifuged at 4000 rpm for 10 minutes, and IL-2 was quantified using the IL-2 (human) AlphaLISA Biotin-Free Detection Kit, and TNFα was quantified using the AlphaLISA Human TNFα Biotin-Free Detection Kit, according to the manufacturer's instructions.

[5] = system: LPS induced TNFalpha production; experiment: In vivo LPS induced TNFalpha production in mouse (serum ELISA); details: BALB/c mice; 20 mg/kg p.o. 1 h before LPS; p=0.008
Description: BALB/c mice were pretreated for 1 h before LPS (1 mg/kg I.V) injection with NBMPR (20 mg/kg p.o.) or vehicle. […] One hour after LPS treatment, blood serum was collected from the mice. TNFalpha levels were determined by ELISA (n=5).
After 30 minutes, mice were treated with NBMPR p.o. at 20 mg/kg. 60 minutes later, mice were treated with LPS and blood was drawn for TNFalpha measurement in the serum, by ELISA.

MCA205 tumor = experiment: Mouse syngeneic MCA205 fibrosarcoma tumor model; format: in vivo; details: C57BL/6 mice; 20 mg/kg p.o. BID for 22 days; p=0.0043
Source text: FIG. 7A is a graph representing the median tumor volume over time after subcutaneous inoculation of tumor cells.
MCA205 tumor cells were inoculated subcutaneously into the right flank of C57BL/6 mice. When tumors reached an average size of about […], mice were randomly allocated into groups.

Structure (SMILES) | Reversal of inhibition of T cells in the presence of ATP, A2A receptor antagonist in combination with dipyridamole [4] | Restoration of adenosine- and ATP-mediated suppression of T cell proliferation [1] | Restoration of adenosine- and ATP-mediated suppression of T cell viability [2] | Restoration of adenosine- and ATP-mediated suppression of IL-2 secretion [3] | further results
Nc1ncnc2c1ncn2[C@@H]1O[C@H](CO)[C@@H](O)[C@H]1O [Adenosine] | – | – | – | – | T cell proliferation, effect of adenosine or ATP [1]: profoundly suppressed; T cell viability, effect of adenosine or ATP [2]: strongly reduced; T cell cytokine secretion (IL-2), effect of adenosine or ATP [3]: profoundly suppressed
Nc1ncnc2c1ncn2[C@@H]1O[C@H](COP(=O)([O-])OP(=O)([O-])OP(=O)(O)O)[C@@H](O)[C@H]1O.O.[Na+].[Na+] [ATP, Adenosine 5′-triphosphate disodium salt hydrate] | – | – | – | – | CD8+ T cell proliferation, effect of ATP ([1]; 100 μM ATP): significantly inhibited; T cell proliferation, effect of adenosine or ATP [1]: profoundly suppressed; Production of TNFα, effect of ATP ([4]; 3 days): significantly inhibited; T cell viability, effect of ATP ([2]; 100 μM ATP): reduced; T cell viability, effect of adenosine or ATP [2]: strongly reduced; T cell cytokine secretion (IL-2), effect of adenosine or ATP [3]: profoundly suppressed
Nc1nc(-n2cccn2)nc(-n2cccn2)c1Br [NIR178, 5-bromo-2,6-di-(1H-pyrazol-1-yl)pyrimidin-4-amine] | reversed | – | – | – | –
Cc1cc(-c2nnc(N)nc2-c2ccc(F)cc2)cc(Cl)n1 [AZD4635, 6-(2-chloro-6-methylpyridin-4-yl)-5-(4-fluorophenyl)-1,2,4-triazin-3-amine] | reversed | – | – | – | –
OCCN(CCO)c1nc(N2CCCCC2)c2nc(N(CCO)CCO)nc(N3CCCCC3)c2n1 [dipyridamole] | – | restored | restored | none of the ENT inhibitors rescued | Reversal of ATP inhibition of CD8+ T cell proliferation ([1]; 100 μM ATP, dipyridamole 1 μM): completely reversed; Reversal of ATP-reduced T cell viability ([2]; 100 μM ATP, dipyridamole 1 μM): completely reversed
Cc1ccc(-c2nc(N)nc3c2nnn3Cc2cccc(CO[C@H]3CCOC3)n2)o1 [CPI-444, (S)-7-(5-methylfuran-2-yl)-3-((6-(([tetrahydrofuran-3-yl]oxy)methyl)pyridin-2-yl)methyl)-3H-[1,2,3]triazolo[4,5-d]pyrimidin-5-amine] | reversed | – | – | – | –
Cc1c(C#N)cccc1-c1cc(-c2cn(Cc3cccc(C(C)(C)O)n3)nn2)nc(N)n1 [AB928, 3-(2-amino-6-(1-((6-(2-hydroxypropan-2-yl)pyridin-2-yl)methyl)-1H-1,2,3-triazol-4-yl)pyrimidin-4-yl)-2-methylbenzonitrile] | reversed | – | – | – | –
COc1cc(C(=O)OCCCN2CCCN(CCCOC(=O)c3cc(OC)c(OC)c(OC)c3)CC2)cc(OC)c1OC [dilazep hydrochloride] | – | restored | restored | none of the ENT inhibitors rescued | –
CCCSc1nc(N[C@@H]2C[C@H]2c2ccc(F)c(F)c2)c2nnn([C@@H]3C[C@H](OCCO)[C@@H](O)[C@H]3O)c2n1 [ticagrelor] | – | restored | restored | none of the ENT inhibitors rescued | –
O=[N+]([O-])c1ccc(CSc2ncnc3c2ncn3[C@@H]2O[C@H](CO)[C@@H](O)[C@H]2O)cc1 [NBMPR, 6-S-[(4-Nitrophenyl)methyl]-6-thioinosine] | – | – | – | – | Suppression of TNFalpha production after LPS, NBMPR on its own [5]: ~2 fold; Tumor growth compared to Vehicle, NBMPR single agent (MCA205 tumor): significant delay in tumor growth
